Patent US8785471B2, “Pharmaceutical composition containing ferulic acid and matrine compounds, the preparation and the use thereof” (Qingdao Qiyuan Bio-Technologies Co., Ltd., priority 2008, dated 2014)
Marks after values point to notes of the source that are not given here.

What was measured:
[1] = tested on: AChE activity in cortex tissue and blood; details: model rats, intragastric 50 μg/kg, 7 days; mean ± SD
Protocol: Animal grouping, modeling and administration: 57 female Wistar rats (15 month old, 300-450 g, from animal center of Qingdao Institute for Drug Control, fed under normal conditions and natural light with unlimited drink and food) were randomly separated into 6 groups. Rats in normal control group were intraperitoneal injected with physiological saline for 6 weeks and injected physiological saline into the meynert nucleus basalis. Rats in modeling control group were injected intraperitoneally with D-galactose (48 mg/kg/d) for 6 weeks and injected with ibotenic acid into the meynert nucleus basalis. […] The rats in the normal and modeling control groups were intragastrically administrated with physiological saline for consecutive 7 days. 1 hour after the last administration, the learning ability of all the rats; was evaluated. Then, the rats were anesthetized with Pentobarbital. 5 ml blood was collected from abdominal aorta. Immediately the cortex tissue was collected and homogenated with physiological saline into 10% (WN). The AChE activity in cortex tissue and blood was measured according to the reagent kit instructions. • 3. […] The shocked times (mistakes) within 5 minutes were recorded as a reference for the learning ability of the rats. […] The latency time for the first jump was recorded as a reference for the memory ability. The shocked times (mistakes) within 5 minutes were also recorded. […]

rats = experiment: Alzheimer's disease model rats, learning and memorizing ability in jumping tests; assay type: in vivo; details: intragastric 50 μg/kg, 7 days, mean ± SD
Protocol: Animal grouping, modeling and administration: 57 female Wistar rats (15 month old, 300-450 g, from animal center of Qingdao Institute for Drug Control, fed under normal conditions and natural light with unlimited drink and food) were randomly separated into 6 groups. Rats in normal control group were intraperitoneal injected with physiological saline for 6 weeks and injected physiological saline into the meynert nucleus basalis. Rats in modeling control group were injected intraperitoneally with D-galactose (48 mg/kg/d) for 6 weeks and injected with ibotenic acid into the meynert nucleus basalis. […] The rats in the normal and modeling control groups were intragastrically administrated with physiological saline for consecutive 7 days. 1 hour after the last administration, the learning ability of all the rats; was evaluated. Then, the rats were anesthetized with Pentobarbital. 5 ml blood was collected from abdominal aorta. Immediately the cortex tissue was collected and homogenated with physiological saline into 10% (WN). The AChE activity in cortex tissue and blood was measured according to the reagent kit instructions. • 3. Measurement: testing the memory ability of rats: the rats were placed in an electric box with an escaping platform for 3 minutes to get used to the new environments. The box was then connected to 50V AC. Upon being shocked, the rats can escape the electricity by jumping onto the platform. The shocked times (mistakes) within 5 minutes were recorded as a reference for the learning ability of the rats. After 24 hours, the rats were placed directly on the platform. The latency time for the first jump was recorded as a reference for the memory ability. The shocked times (mistakes) within 5 minutes were also recorded. The latency time of over 5 minutes was considered as 5 minutes.
T testing method was used to evaluate the difference within different groups, and the difference was statistically significant when P<0.05. • 4. […] P represents statistic difference. *P<0.05 means statistically obvious difference, **P<0.01 statistically significant difference.

C/C=C1\[C@H]2C=C(C)C[C@]1(N)c1ccc(=O)[nH]c1C2 [Huperzine A, huperzine A]
Blood TchE [1]: 48 ± 35* mmol/L
Cortex TchE [1]: 2.0 ± 0.6* μmol/g
Latency (rats; after 24 hours): 135 ± 55* s
Mistakes within 5 min (rats): 4 ± 2.3*
Mistakes within 5 min after 24 hours (rats): 2 ± 1.6*
